# Measured values: PubChem BioAssay (NCI)
#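 The compound was tested at five concentrations on cells cultured in 96-well plates, with a 48-hour exposure period. TGI: concentration producing complete growth inhibition.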
# Assays:
# Assay in all cases: inhibition of tumour cell growth, NCI panel, 48 h
# SN12C renal = test system: SN12C renal
# MDA-MB-435 = test system: MDA-MB-435
# UACC-62 melanoma = test system: UACC-62 melanoma
# A549 NSCLC = test system: A549 NSCLC
# NCI/ADR-RES ovarian = test system: NCI/ADR-RES ovarian
# HCC-2998 colon = test system: HCC-2998 colon
# SNB-19 CNS = test system: SNB-19 CNS
# SR leukemia = test system: SR leukemia
# T-47D breast = test system: T-47D breast
# HS 578T breast = test system: HS 578T breast
SMILES,TGI (SN12C renal) [µM],TGI (MDA-MB-435) [µM],TGI (UACC-62 melanoma) [µM],TGI (A549 NSCLC) [µM],TGI (NCI/ADR-RES ovarian) [µM],TGI (HCC-2998 colon) [µM],TGI (SNB-19 CNS) [µM],TGI (SR leukemia) [µM],TGI (T-47D breast) [µM],TGI (HS 578T breast) [µM]
CC(=O)OCC1OC(Nn2c(=O)[nH]c3ccccc3c2=O)C(OC(C)=O)C(OC(C)=O)C1OC(C)=O (stereo not given),> 100,> 100,> 100,> 100,> 100,53,> 100,> 100,> 100,> 100
COC(=O)C1(C#N)C(C)(C)N=C(c2ccccc2)C12CCCCC2 (stereo not given),> 100,> 100,> 100,> 100,> 100,> 100,> 100,> 100,> 100,> 100
